Patent US4558127A, “5-Fluorouracil nitroxyl derivatives possessing antitumor activity” (priority 1984, dated 1985)
“Also recorded” adds a separate entry of the source. Where a name gives a salt, the structure may show the parent alone.

How the values were obtained:
Walker carcinosarcoma = conditions: background art; cited from earlier work
Schwetz erythroleukosis = assay: Antitumor activity on grafted Schwetz erythroleukosis in rats; format: in vivo, rat; conditions: for Inhibition of tumor volume gain: mongrel rats, days 7-14
From the text: (§1) For the determination of antitumor activity these compounds (I, II, III, IV), 5-fluorouracyl and Ftorafur were used in the same solvents as in the determination of toxicity.
(§2) The determination of antitumor activity was effected on grafted tumors of mice: leukemia L-1210, leukemia P-388, Leukemia La, melanoma B-16, adenocarcinoma 755 (Ca-755), as well as on grafted tumors of rats: Schwetz erythroleukosis, Walker carcinosarcoma (WCS), Geren carcinoma.
(§3) In the determination of the antitumor activity the test compounds were introduced in equitoxic doses. Ftorafur was also used in the optimal dose which is equal to […].
(§4) As the criterion of antitumor activity on solid tumors used is the inhibition (I) of the tumor volume gain in comparison with the control, expressed in percent and calculated by the formula: [formula] wherein Vc --average volume of the tumor in the control,
(§5) Vt --average volume of the tumor in the experiment.

[1] = Toxicity (LD50), intraperitoneal administration, mongrel white mice, Burns method; format: in vivo, mouse
From the text: Toxicity of the compounds according to the present invention has been determined on mongrel white mice in experimental intraperitoneal administration of these compounds and evaluated by the Burns method (using curves of accumulation of the animal death frequencies vs. dose).
As the toxicity characteristic use was made of the dose causing death of 50% of the animals employed for the experiment (LD50).
For the determination of toxicity of (1,3-bis-(2,2,5,5-tetramethyl-1-oxyl-Δ^3 -pyrrolin-3-oyl)-5-fluorouracyl(compound I), 1-(2,2,5,5-tetramethyl-1-oxyl-Δ^3 -pyrrolin-3-oyl)-5-fluorouracyl (compound II) and 3-(2,2,5,5-tetramethyl-1-oxyl-Δ^3 -pyrrolin-3-oyl)-5-fluorouracyl (compound III), these compounds were administered intraperitoneally in the form of an emulsion in a 10% aqueous solution of polyoxyethylsorbitan monooleate (Tween-80, Ferak Berlin West Germany).
For the determination of toxicity of sodium salt of 3-(2,2,5,5-tetramethyl-1-oxyl-Δ^3 -pyrrolin-3-oyl)-5-fluorouracyl (compound IV), Ftorafur and 5-fluorouracyl, these compounds were also administered intraperitoneally in the form of aqueous solutions.

[2] = background art; cited from earlier work
melanoma B-16 = assay: Antitumor activity on grafted melanoma B-16 in mice (inhibition of tumor volume gain); format: in vivo, mouse; conditions: for Inhibition of tumor volume gain: B-16, CBAF1 mice
From the text: as §1, §2, §3, §4, §5

Harding-Passey melanoma = conditions: background art; cited from earlier work
sarcoma 180 = conditions: background art; cited from earlier work
[3] = test system: alveolar carcinoma of liver; conditions: background art; cited from earlier work
adenocarcinoma 755 = assay: Kinetic curves of tumor volume gain, adenocarcinoma 755 in mice (FIG. 2); conditions: C 57 B1 mice, equimolar single doses 0.2 mmol/kg i/p, daily over 10 days
Procedure: To reveal the antitumor activity and kinetic characteristic of the therapeutic effectiveness of compound (IV) and Ftorafur in the case of adenocarcinoma 755, a series of experiments was conducted on mice C 57 B1. Adenocarcinoma 755 was grafted using a tumor cell suspension in a physiological solution (dilution 1:1 by mass) and was administered hypodermally in the dose of 0.3 ml to each mouse. The test compounds were administered intraperitoneally, starting from the 1-st day after grafting of the tumor, daily over the period of 10 days.
The tumor volume increase (V) of adenocarcinoma 755 was determined in cm^3 for 28 days (.tau.).
In the kinetic curve 5 experimental points corresponding to the control experiment are conventionally shown as circles, while experimental points corresponding to the use of Ftorafur are conventionally shown as squares.

leukemia La [4] = assay: Antitumor activity on grafted leukemia La in mice (ELS, kinetic criterion, chemotherapeutic index); format: in vivo, mouse; conditions: for Chemotherapeutic index I60 = LD10/ED60 / ELS (extension of average life span) / kinetic criterion (.chi.) = 1-.phi.t/.phi.c: La, C57Bl mice; for Chemotherapeutic index I60 = LD10/ED60: i/p
From the text: as §1, §2
Leukemia La was grafted intraperitoneally using a suspension of leukemic cells in a physiological solution. The inoculum contained 10^8 of leukemia cells. […]
In the determination of the antitumor activity the test compounds were introduced in equitoxic doses.
(§6) The criterion of the antitumor activity for leukemia P-338, L-1210 and La is the extension of an average life span (ELS) of the test animals as compared to the control ones, expressed in percent and calculated by the formula: [formula] wherein Lt --life span of animals in the test group;
(§7) Lc --life span of animals in the control group, i.e. without administration of the test compounds.
(§8) The comparative assessment of the scope of therapeutic action is effected using chemotherapeutic indices I40, I60 and I100 : I40 =LD10 /ED40, I60 =LD10 /ED60 I100 =LD10 /ED100, where LD10 =dose causing death of 10% of the animals; ED40, ED60 and ED100 are effective doses causing extension of the animal's life span by 40, 60 and 100 percent respectively.

[5] = test system: adenocarcinoma 755 (Ca-755); assay: Antitumor activity on grafted adenocarcinoma 755 in mice; format: in vivo, mouse
From the text: as §1, §2, §3, §4, §5

[6] = test system: Walker carcinosarcoma (WCS); assay: Antitumor activity on grafted Walker carcinosarcoma in rats; format: in vivo, rat
From the text: as §1, §2, §3, §4, §5

leukemia L-1210 = assay: Antitumor activity on grafted leukemia L-1210 in mice; format: in vivo, mouse; conditions: for ELS (extension of average life span): control life span 7,5 days
From the text: as §1, §2
Leukemia L-1210 was grafted intraperitoneally, 10^5 cells in 0.2 ml of ascitic liquid.
as §3, §6, §7, §8

grafted tumors = assay: Antitumor activity on grafted tumors, overall assessment; format: in vivo, mice and rats
From the text: as §1, §2, §3, §6
As the criterion of antitumor activity on solid tumors used is the inhibition (I) of the tumor volume gain in comparison with the control, expressed in percent and calculated by the formula: [formula] wherein Vc --average volume of the tumor in the control, […]

[7] = Reaction of aqueous solutions; format: physicochemical
leukemia P-388 = assay: Antitumor activity on grafted leukemia P-388 in mice; format: in vivo, mouse; conditions: for ELS (extension of average life span): control life span 10 days
From the text: as §1, §2
Leukemia P-388 was grafted intraperitoneally, 10^6 cells in 0.2 ml of ascitic liquid.
as §3, §6, §7, §8

Solubility = format: physicochemical; conditions: water
Geren carcinoma = assay: Antitumor activity on grafted Geren carcinoma in rats; format: in vivo, rat; conditions: mongrel rats, single dose 60 mg/kg i/p, days 7-16
From the text: as §1, §2, §3, §4, §5

[8] = Stability against hydrolysis; format: physicochemical; conditions: room temperature, pH 3 to 11, about 5 hours
leukemia La [9] = assay: Kinetic curves of spleen mass, leukemia La in mice (FIG. 1); format: in vivo, mouse; conditions: equimolar single doses 0.2 mmol/kg i/p
Procedure: Leukemia La was grafted intraperitoneally by means of a suspension of leukemic cells in a physiological solution. The inoculum contained 10^8 of leukemic cells. Compound (IV), Ftorafur and 5-fluorouracyl were also administered intraperitoneally so that the first administration was effected 3 hours after the tumor grafting, and then--on a daily basis over the period of seven days.
Determined were the variations of mass (M) of mice spleen in g over 14 days (.tau.). The obtained data were used to plot a graph in coordinates M-.tau. represented in FIG. 1.

[10] = single dose 45 mg/kg i/p, days 1-6
[11] = Ca-755, C57Bl mice, single dose 65 mg/kg i/p, days 1-10

For `O=c1[nH]c(=O)n(C2CCCO2)cc1F` (stereo not drawn) [Ftorafur, 1-(α-furanidyl)-5-fluorouracyl, reference compound], the “activity in respect of Walker carcinosarcoma” value (Walker carcinosarcoma) is given as “rather high activity”, the “Inhibition of tumor volume gain” value (Schwetz erythroleukosis; single dose 90 mg/kg i/p) is given as 15% and the LD50 ([1]; mouse, in vivo, ip, mice, intraperitoneal, I, II, III as emulsion in 10% aqueous Tween-80, IV, Ftorafur, 5-fluorouracyl as aqueous solutions) is given as 640 mg/kg. For the same compound, the “toxicity / side effects in words” value [2] was “inhibits hemopoiesis and causes complications on the side of the gastro-intestinal tract”, the “Inhibition of tumor volume gain” value (melanoma B-16; single dose 300 mg/kg, days 1,5,9, mode of grafting printed i/p) was 10% and the “activity in respect of Harding-Passey melanoma” value (Harding-Passey melanoma) was “rather high activity”. The “activity in respect of sarcoma 180” value (sarcoma 180) was “rather high activity”, the “activity in respect of alveolar carcinoma of liver” value [3] was “rather high activity” and the “inhibition of tumor growth, in words” value (adenocarcinoma 755) was “no antitumor activity”. For the same compound, the “Chemotherapeutic index I60 = LD10/ED60” value (leukemia La [4]; days 1,5,9) was 2.0, the “ELS (extension of average life span)” value (leukemia La [4]; [10]) was 15% and the “kinetic criterion (.chi.) = 1-.phi.t/.phi.c” value (shortened to “kinetic criterion”) (leukemia La [4]; [10]) was 0.17. The “ELS (extension of average life span)” value (leukemia La [4]; single dose 300 mg/kg i/p, days 1,5,9) was 60%.
With `CC1(C)C=C(C(=O)n2c(=O)[nH]cc(F)c2=O)C(C)(C)N1[O]` [IV, sodium salt of 3-(2,2,5,5-tetramethyl-1-oxyl-Δ^3-pyrrolin-3-oyl)-5-fluorouracyl] the “effectiveness relative to Ftorafur and 5-fluorouracyl, fold” value (Schwetz erythroleukosis; comparable doses and treatment procedures) was 2-3 times, the “Inhibition of tumor volume gain” value (Schwetz erythroleukosis; single dose 75 mg/kg i/p) was 45% and the toxicity in words ([1]; general statement) was “low toxicity”. The “toxicity compared with Ftorafur, in words” value ([1]; mice, i/p) was “approach toxicity of Ftorafur”, the “less toxic than 5-fluorouracyl, fold” value ([1]; mice, i/p, relative to 5-fluorouracyl) was 5 times and the “Toxicity, LD50” value ([1]; mice, intraperitoneal, I, II, III as emulsion in 10% aqueous Tween-80, IV, Ftorafur, 5-fluorouracyl as aqueous solutions) was 510 mg/kg. For the same compound, the “Inhibition of tumor volume gain” value (melanoma B-16; single dose 75 mg/kg i/p, days 1-10) was 30%, the “effectiveness relative to Ftorafur, fold” value (melanoma B-16; melanoma B-16, comparable doses and treatment procedures) was 3 times and the “Inhibition of tumor volume gain” value [5, 11] was 70%. The “kinetic criterion” value [5, 11] was 0.3, the “antitumor activity, adenocarcinoma 755, in words” value ([5]; mouse, in vivo) was “considerable antitumor activity” and the “Inhibition of tumor volume gain” value ([6]; WCS, mongrel rats, single dose 60 mg/kg i/p, days 1-10) was 75%. The “antitumor activity, Walker carcinosarcoma, in words” value ([6]; rat, in vivo) was “considerable antitumor activity”, the “Chemotherapeutic index I60 = LD10/ED60” value (leukemia L-1210; L-1210, BDF1 mice, i/p, days 1-7) was 5,6 and the “ELS (extension of average life span)” value (leukemia L-1210; L-1210, BDF1 mice, single dose 65 mg/kg i/p, days 1-9) was 100%. The “ELS (extension of average life span)” value (leukemia L-1210; L-1210, BDF1 mice, single dose 75 mg/kg i/p, days 1-7) was 60%, the “antitumor activity, leukemia L-1210, in words” value (leukemia L-1210; mouse, in vivo) was “high antitumor activity” and the “antileukemic effect, in words” value (grafted tumors; in vivo) was “high antileukemic activity”. The “effect on solid tumors, in words” value (grafted tumors; solid tumors) was “most active; also recorded: high antitumor activity in respect of solid tumors”, the “reaction of aqueous solutions” value [7] was “alkaline reaction” and the “Chemotherapeutic index I100 = LD10/ED100” value (leukemia P-388; P-388, BDF1 mice, i/p, days 1,3,5,7,9) was 4,2. The “ELS (extension of average life span)” value (leukemia P-388; P-388, BDF1 mice, single dose 75 mg/kg i/p, days 1-7) was 90%, the “ELS (extension of average life span)” value (leukemia P-388; P-388, BDF1 mice, single dose 100 mg/kg i/p, days 1,3,5,7,9) was 100% and the “antitumor activity, leukemia P-388, in words” value (leukemia P-388; mouse, in vivo) was “high antitumor activity”. The “inhibition of tumor growth, in words” value (adenocarcinoma 755) was “considerable inhibition of the tumor growth”, the solubility in water (Solubility) was “very well soluble in water” and the “Chemotherapeutic index I60 = LD10/ED60” value (leukemia La [4]; days 1,3,5,7,9) was 4,2. For the same compound, the “kinetic criterion” value (leukemia La [4]; single dose 75 mg/kg i/p, days 1-7 after grafting) was 0,7, the “ELS (extension of average life span)” value (leukemia La [4]; single dose 75 mg/kg i/p, days 1-7 after grafting, control life span 6,5 days) was 80% and the “ELS (extension of average life span)” value (leukemia La [4]; single dose 100 mg/kg i/p, days 1,3,5,7,9, control life span 6,5 days) was 60%. For the same compound, the “chemotherapeutic index I60 relative to that of 5-fluorouracyl, fold” value (leukemia La [4]; leukemia La) was 1.2 time, the “chemotherapeutic index I60 relative to that of Ftorafur, fold” value (leukemia La [4]; leukemia La) was 2 times and the “therapeutic effect compared with 5-fluorouracyl, in words” value (leukemia La [4]; leukemia La) was “comparable with that of 5-fluorouracyl”. The “effectiveness superior to Ftorafur, fold” value (leukemia La [4]; leukemia La, equitoxic doses, comparable treatment schedules) was 5 times, the “Inhibition of tumor volume gain” value (Geren carcinoma) was 20% and the stability against hydrolysis [8] was “do not undergo any noticeable hydrolytical decomposition”. The “inhibition of leukemia La (spleen mass gain), in words” value (leukemia La [9]; C 57 B1 mice, daily over seven days) was “most effective in inhibition of leukemia La” and the “activity relative to 5-fluorouracyl (spleen mass gain), in words” value (leukemia La [9]) was “by several times superior”.
